How the values were obtained:
PKCα = PKCα (Homo sapiens, UniProt P17252); settings: inhibitor 10 μM; reported by Sadhu et al.; cited from earlier work
CK1 = settings: inhibitor 10 μM; reported by Sadhu et al.; cited from earlier work
neutrophils [1] = experiment: Neutrophil chemotaxis across bare filter insert (Transwell) to LTB4; type: cell-based, mouse
Protocol: Neutrophil chemotaxis experiments were conducted as described [Roth et al., J. Immunoi. Methods, 188:97-116 (1995)]. Briefly, purified human neutrophils were incubated with DMSO (0.3% v/v) or an inhibitor in accordance with the invention reconstituted in DMSO (0.3%) for 20 minutes at room temperature. Cells were added to bare filter inserts (Transwell™ 5 μm pore size; Corning Costar, Cambridge, Mass.), that were placed into wells containing chemoattractants or control medium of a Ultra low 24-well cluster plate, and incubated for 1 hour at 37° C. in a 5% CO2 humidified environment. The number of neutrophils that migrated into the bottom well was determined by FACScan (Becton Dickinson, San Jose, Calif.). Results were expressed as percent neutrophil migration relative to the control (medium without inhibitor).
A dose response curve was generated to determine the concentration of LTB4 necessary to support half-maximal migration across a bare filter insert. Maximal transmigration for neutrophils purified from mouse bone marrow occurred between 100 to 250 nM of LTB4. […] Tager et al., J Exp. Med., 192:439-46 (2000). Treatment of WT neutrophils with 2 μM inhibitor in accordance with the invention diminished migration in response to LTB4 (30 nM) by ˜30%, a value equivalent to that observed for PI3Kδ deficient cells.

Lck = Lck (Homo sapiens, UniProt P06239); experiment: Protein kinase/phosphatase panel: Lck; type: biochemical; settings: inhibitor 10 μM; 100 μM ATP
[2] = Plasma concentration of the compound after oral administration; type: in vivo, mice; settings: when LTB4 was applied
Protocol: Animals received a single oral dose of either a compound in accordance with the invention (25 mg/kg for mice and 20 or 40 mg/kg for rats) or vehicle (PEG-400). Blood samples were subsequently drawn at indicated time points and plasma concentration of the compound determined after liquid-liquid extraction by LC/MS. The lower quantification limit was 50 ng/ml. Plasma samples from control animals (vehicle alone) were used as the blank control.

P70S6K = P70S6K (Homo sapiens, UniProt P23443); experiment: Protein kinase/phosphatase panel: P70S6K; type: biochemical; settings: inhibitor 10 μM; 100 μM ATP
Sequence of P70S6K (P23443 whole entry): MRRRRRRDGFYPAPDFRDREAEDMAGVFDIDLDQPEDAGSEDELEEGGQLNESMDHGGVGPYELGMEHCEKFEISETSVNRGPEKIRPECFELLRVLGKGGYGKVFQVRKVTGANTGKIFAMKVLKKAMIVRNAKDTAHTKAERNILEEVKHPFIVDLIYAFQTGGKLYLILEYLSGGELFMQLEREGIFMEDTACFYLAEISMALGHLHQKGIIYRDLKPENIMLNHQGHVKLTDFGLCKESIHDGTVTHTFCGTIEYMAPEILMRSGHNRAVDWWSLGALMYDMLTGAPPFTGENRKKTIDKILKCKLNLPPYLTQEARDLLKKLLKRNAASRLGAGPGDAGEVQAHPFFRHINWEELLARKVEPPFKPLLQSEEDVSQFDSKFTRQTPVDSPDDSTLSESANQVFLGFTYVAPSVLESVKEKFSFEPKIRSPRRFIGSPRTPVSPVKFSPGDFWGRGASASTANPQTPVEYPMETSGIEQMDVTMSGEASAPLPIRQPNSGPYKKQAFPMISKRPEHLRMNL

TNFα-stimulated HUVECs = experiment: Neutrophil tethering to TNFα-stimulated HUVECs, parallel plate flow chamber; type: cell-based, human; settings: for reduction of neutrophil tethering to HUVECs pre-incubated with inhibitor: 2 μM, vs vehicle
Protocol: First, the effect of inhibiting PI3Kδ in endothelial cells was examined. Human umbilical vein endothelial cells (HUVECs) (3-4 passages; Cambrex Inc., East Rutherford, N.J.) grown on fibronectin-coated glass cover slips were pretreated with an inhibitor in accordance with the invention (2 μM) or vehicle control for 1 hour prior to being stimulated with TNFα (5 ng/ml, 4 h). Stimulation with TNFα induces expression of E-selectin by the endothelial cells. Peripheral blood neutrophils from healthy volunteers were isolated from whole blood by dextran sedimentation followed by density separation over Ficoll-Hypaque and hypotonic lysis. Approval was obtained from the Washington University Institutional Review Board for these studies. Informed consent was provided according to the Declaration of Helsinki. […] In additional experiments where leukocytes were pre-treated with an inhibitor of the invention as described above, the HUVECS were pre-incubated with mAb CL3 (50 μg/ml, 15 min) to block E-selectin binding. […] Endothelial cells therefore recruit leukocytes at least in part through selectins.

PDK1 = PDK1 (Homo sapiens, UniProt O15530); experiment: Protein kinase/phosphatase panel: PDK1; type: biochemical; settings: inhibitor 10 μM; 100 μM ATP
Sequence of PDK1 (O15530 whole entry): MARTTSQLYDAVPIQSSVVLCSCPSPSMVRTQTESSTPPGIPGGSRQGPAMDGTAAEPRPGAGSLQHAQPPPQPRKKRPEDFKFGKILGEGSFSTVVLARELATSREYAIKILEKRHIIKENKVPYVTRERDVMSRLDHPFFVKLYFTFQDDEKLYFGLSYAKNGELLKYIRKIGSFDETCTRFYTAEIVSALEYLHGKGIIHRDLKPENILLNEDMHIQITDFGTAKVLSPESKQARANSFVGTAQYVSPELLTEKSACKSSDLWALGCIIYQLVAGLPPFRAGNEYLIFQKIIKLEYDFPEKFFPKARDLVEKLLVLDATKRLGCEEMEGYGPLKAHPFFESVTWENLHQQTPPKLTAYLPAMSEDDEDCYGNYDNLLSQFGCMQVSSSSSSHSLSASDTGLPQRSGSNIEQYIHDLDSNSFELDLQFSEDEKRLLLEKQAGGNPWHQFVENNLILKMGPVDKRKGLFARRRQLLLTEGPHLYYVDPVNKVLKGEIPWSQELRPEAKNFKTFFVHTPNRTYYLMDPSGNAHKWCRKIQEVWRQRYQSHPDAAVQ

PKCβII = PKCβII (Homo sapiens, UniProt P05771); settings: inhibitor 10 μM; reported by Sadhu et al.; cited from earlier work
Sequence of PKCβII (P05771 1-673 isoform P05771-2): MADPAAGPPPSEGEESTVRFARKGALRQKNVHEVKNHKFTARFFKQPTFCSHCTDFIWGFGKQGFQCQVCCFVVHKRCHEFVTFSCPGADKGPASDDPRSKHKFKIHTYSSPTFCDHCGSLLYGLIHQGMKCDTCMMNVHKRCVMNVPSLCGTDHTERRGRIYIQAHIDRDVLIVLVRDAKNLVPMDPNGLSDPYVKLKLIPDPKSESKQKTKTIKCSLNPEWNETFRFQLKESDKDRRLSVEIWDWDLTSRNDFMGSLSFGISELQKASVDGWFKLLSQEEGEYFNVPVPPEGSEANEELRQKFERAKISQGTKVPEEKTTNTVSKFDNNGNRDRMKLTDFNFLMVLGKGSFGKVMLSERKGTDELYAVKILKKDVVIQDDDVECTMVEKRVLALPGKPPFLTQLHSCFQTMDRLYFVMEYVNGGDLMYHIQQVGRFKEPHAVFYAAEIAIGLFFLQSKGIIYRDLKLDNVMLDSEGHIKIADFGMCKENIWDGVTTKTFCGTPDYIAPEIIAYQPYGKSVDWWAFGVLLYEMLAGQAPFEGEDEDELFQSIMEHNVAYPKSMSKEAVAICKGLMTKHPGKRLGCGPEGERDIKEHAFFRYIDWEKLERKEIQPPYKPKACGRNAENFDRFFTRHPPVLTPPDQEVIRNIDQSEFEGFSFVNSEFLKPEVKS

neutrophils [3] = settings: absence of hemodynamic forces; Sadhu et al.; cited from earlier work
ICAM-1 = experiment: LTB4-triggered firm adhesion of neutrophils to CHO cells transfected with human ICAM-1; type: cell-based; settings: 2 μM; LTB4 0.1 μM; wall shear stresses 2 and 4 dyn/cm^2
Protocol: Purified neutrophils (2×10^6/ml in HBSS buffer containing 2 mM MgCl2) were incubated with 2 μM of a compound in accordance with the invention prior to conducting the adhesion assays. […] Treated neutrophils were then stimulated with LTB4 (0.1 μM) and allowed to bind in stasis to CHO cells transfected with human ICAM-1 before subjecting them to physiological wall shear stresses of 2 and 4 dyn/cm^2. ICAM-1 expression on these cells was confirmed by flow cytometry using mAb R 1/1 (fluorescence intensity>103, data not shown). […] For example, more than 80% of LTB4-stimulated neutrophils remained bound to the ICAM-1 substrate in the presence or absence of an inhibitor in accordance with the invention. The percentage of cells that remained adherent after 20 seconds (s) at each wall shear stress was determined by off-line video analysis.

PKBα (Akt 1) = PKBα (Akt 1) (Homo sapiens, UniProt P31749); settings: inhibitor 10 μM; reported by Sadhu et al.; cited from earlier work
Sequence of PKBα (Akt 1) (P31749 whole entry, species assumed): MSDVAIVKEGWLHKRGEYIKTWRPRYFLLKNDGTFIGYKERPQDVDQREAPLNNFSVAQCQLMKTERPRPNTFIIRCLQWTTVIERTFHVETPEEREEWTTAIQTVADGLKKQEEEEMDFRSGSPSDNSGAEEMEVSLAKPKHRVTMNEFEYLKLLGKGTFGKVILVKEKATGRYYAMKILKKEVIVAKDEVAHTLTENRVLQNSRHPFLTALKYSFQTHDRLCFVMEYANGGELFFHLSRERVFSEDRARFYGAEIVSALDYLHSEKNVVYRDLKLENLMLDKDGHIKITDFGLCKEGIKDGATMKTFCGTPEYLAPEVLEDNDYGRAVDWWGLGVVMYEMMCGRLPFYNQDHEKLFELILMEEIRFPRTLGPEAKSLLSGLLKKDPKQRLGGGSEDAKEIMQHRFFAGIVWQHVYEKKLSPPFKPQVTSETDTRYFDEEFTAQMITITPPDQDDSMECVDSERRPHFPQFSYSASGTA

cSrc = cSrc (Homo sapiens, UniProt P12931); settings: inhibitor 10 μM; reported by Sadhu et al.; cited from earlier work
Sequence of cSrc (P12931 whole entry, species assumed): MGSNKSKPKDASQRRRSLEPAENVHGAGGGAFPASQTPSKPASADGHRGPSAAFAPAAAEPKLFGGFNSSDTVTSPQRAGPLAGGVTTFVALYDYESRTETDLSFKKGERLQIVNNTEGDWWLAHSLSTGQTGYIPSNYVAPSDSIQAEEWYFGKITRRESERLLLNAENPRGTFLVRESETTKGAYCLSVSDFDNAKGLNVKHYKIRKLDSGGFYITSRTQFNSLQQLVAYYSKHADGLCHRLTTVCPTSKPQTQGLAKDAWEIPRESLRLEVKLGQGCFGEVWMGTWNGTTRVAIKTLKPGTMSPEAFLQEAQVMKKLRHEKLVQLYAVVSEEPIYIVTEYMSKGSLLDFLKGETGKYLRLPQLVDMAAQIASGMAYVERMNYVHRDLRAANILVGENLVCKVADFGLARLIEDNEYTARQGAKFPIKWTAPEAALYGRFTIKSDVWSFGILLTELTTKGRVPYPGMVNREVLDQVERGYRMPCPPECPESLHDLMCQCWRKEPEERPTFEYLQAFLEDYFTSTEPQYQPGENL

[4] = molecular target: Insulin receptor tyrosine kinase (Homo sapiens, UniProt P06213); experiment: Protein kinase/phosphatase panel: insulin receptor tyrosine kinase; type: biochemical; settings: inhibitor 10 μM; 100 μM ATP
Sequence of Insulin receptor tyrosine kinase (P06213 28-1382): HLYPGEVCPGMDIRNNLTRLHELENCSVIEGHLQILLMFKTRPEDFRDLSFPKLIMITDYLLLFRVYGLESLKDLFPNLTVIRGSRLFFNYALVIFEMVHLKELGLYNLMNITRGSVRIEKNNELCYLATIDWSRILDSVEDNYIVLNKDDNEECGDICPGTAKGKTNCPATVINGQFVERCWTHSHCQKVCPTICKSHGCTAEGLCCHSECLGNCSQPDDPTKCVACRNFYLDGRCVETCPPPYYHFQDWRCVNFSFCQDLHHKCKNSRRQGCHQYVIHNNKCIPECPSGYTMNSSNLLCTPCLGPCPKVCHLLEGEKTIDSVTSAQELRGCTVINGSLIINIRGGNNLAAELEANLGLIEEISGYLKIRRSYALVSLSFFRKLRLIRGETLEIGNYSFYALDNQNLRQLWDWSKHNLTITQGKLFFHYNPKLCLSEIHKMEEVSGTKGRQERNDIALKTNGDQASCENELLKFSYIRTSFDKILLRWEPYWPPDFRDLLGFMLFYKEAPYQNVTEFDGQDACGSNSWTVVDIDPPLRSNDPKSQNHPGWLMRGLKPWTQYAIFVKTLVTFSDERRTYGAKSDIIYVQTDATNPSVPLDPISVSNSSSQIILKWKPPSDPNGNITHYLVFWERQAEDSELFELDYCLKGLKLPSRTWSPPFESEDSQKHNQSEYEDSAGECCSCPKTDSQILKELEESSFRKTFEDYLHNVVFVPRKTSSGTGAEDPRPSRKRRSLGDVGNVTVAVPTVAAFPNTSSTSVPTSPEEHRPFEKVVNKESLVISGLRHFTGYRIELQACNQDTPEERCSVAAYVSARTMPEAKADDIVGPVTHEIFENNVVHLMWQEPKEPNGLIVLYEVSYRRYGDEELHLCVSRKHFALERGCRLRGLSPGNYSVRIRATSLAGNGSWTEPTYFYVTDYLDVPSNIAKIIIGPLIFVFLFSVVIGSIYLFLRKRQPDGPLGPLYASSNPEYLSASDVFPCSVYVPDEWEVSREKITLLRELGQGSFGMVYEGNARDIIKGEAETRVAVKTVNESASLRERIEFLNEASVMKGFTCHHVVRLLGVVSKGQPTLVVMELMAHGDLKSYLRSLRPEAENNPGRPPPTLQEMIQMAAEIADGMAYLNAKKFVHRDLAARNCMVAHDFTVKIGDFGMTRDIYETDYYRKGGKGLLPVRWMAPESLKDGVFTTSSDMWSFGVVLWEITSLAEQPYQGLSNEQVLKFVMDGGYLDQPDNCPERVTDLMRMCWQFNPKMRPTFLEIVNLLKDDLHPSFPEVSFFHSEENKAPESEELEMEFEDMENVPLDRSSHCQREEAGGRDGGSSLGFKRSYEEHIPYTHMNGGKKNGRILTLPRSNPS

Cc1ccccc1-n1c(Cn2cnc3c(N)ncnc32)nc2cccc(C)c2c1=O
Activity (% of control) ± SD (PKCα): No inhibition* | Activity (% of control) ± SD (CK1): No inhibition* | diminished migration in response to LTB4 (neutrophils [1]; 2 μM, LTB4 30 nM, WT neutrophils): ~30% | chemotaxis of cells lacking PI3Kδ (neutrophils [1]; identical concentration (2 μM), PI3Kδ deficient cells): no further effects on chemotaxis | Activity (% of control) ± SD (Lck): 116.5 ± 9.2 % of control | inhibitor concentration (mean plasma) [2]: 12.8 ± 3.7 µM | Activity (% of control) ± SD (P70S6K): 98.5 ± 0.7 % of control | reduction of neutrophil tethering to HUVECs pre-incubated with inhibitor (TNFα-stimulated HUVECs; wall shear rate 100 s^−1): 28% | reduction of neutrophil tethering to HUVECs pre-incubated with inhibitor (TNFα-stimulated HUVECs; wall shear rate 300 s^−1): 40% | neutrophil tethering after treatment of neutrophils (not HUVECs) with inhibitor (TNFα-stimulated HUVECs; identical concentration (2 μM), HUVEC pre-treated with only TNFα): did not reduce neutrophil tethering | Activity (% of control) ± SD (PDK1): 91.5 ± 2.1 % of control | Activity (% of control) ± SD (PKCβII): No inhibition* | fMLP-induced chemotaxis on an ICAM-1 substrate in vitro (neutrophils [3]): diminished fMLP-induced chemotaxis | LTB4-stimulated neutrophils remaining bound to the ICAM-1 substrate (ICAM-1): more than 80% | Activity (% of control) ± SD (PKBα (Akt 1)): No inhibition* | Activity (% of control) ± SD (cSrc): No inhibition* | Activity (% of control) ± SD [4]: 98 ± 6.2 % of control

From patent US20080287469A1, “Phosphoinositide 3-Kinase Inhibitors for Inhibiting Leukocyte Accumulation” (priority 2005, published 2008)
